Reference: the supplement of paper PMC10307832

How the values were obtained:
Assay in all cases: relative viability (nuclei count vs DMSO), 5 days (fraction); higher = more cells survive
[1] = system: A-427
Procedure, shortened: (§1)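 Relative viability equals treated-well nuclei counts divided by vehicle-well nuclei counts. Counts came from 4× images of lung cancer cell lines grown in 1536-well plates for 5 days after pin-tool dosing on the day after seeding. Dosing used one drug alone or a fixed anchor-drug dose plus five library-drug doses (not always all listed) in √10 steps, and values are medians of duplicate plates.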

[2] = system: CAL-12T
Procedure, shortened: as §1

[3] = system: Calu-6
Procedure, shortened: as §1

[4] = system: EBC-1
Procedure, shortened: as §1

[5] = system: IA-LM
Procedure, shortened: as §1

[6] = system: NCI-H1299
Procedure, shortened: as §1

[7] = system: NCI-H1650
Procedure, shortened: as §1

[8] = system: NCI-H1703
Procedure, shortened: as §1

[9] = system: NCI-H1734
Procedure, shortened: as §1

[10] = system: NCI-H2009
Procedure, shortened: as §1

[11] = system: UMC-11
Procedure, shortened: as §1

CCN(CC)CCCCNc1ncc2cc(-c3cc(OC)cc(OC)c3)c(NC(=O)NC(C)(C)C)nc2n1 + CC(C)C[C@H](NC(=O)[C@H](Cc1ccccc1)NC(=O)c1cnccn1)B(O)O [Bortezomib] (partner 0.002 µM)
relative viability ([1]; first compound 0.01 µM): 1.1 | relative viability ([1]; first compound 0.03162 µM): 0.989 | relative viability ([1]; first compound 0.1 µM): 1.12 | relative viability ([1]; first compound 0.3162 µM): 1.06 | relative viability ([1]; first compound 1 µM): 0.913 | relative viability ([2]; first compound 0.03162 µM): 1.02 | relative viability ([2]; first compound 0.1 µM): 1.03 | relative viability ([2]; first compound 0.3162 µM): 1.26 | relative viability ([2]; first compound 1 µM): 0.769 | relative viability ([3]; first compound 0.01 µM): 1.01 | relative viability ([3]; first compound 0.03162 µM): 1.11 | relative viability ([3]; first compound 0.1 µM): 1.08 | relative viability ([3]; first compound 0.3162 µM): 1.11 | relative viability ([3]; first compound 1 µM): 0.996 | relative viability ([4]; first compound 0.01 µM): 0.554 | relative viability ([4]; first compound 0.03162 µM): 0.599 | relative viability ([4]; first compound 0.1 µM): 0.634 | relative viability ([4]; first compound 0.3162 µM): 0.565 | relative viability ([4]; first compound 1 µM): 0.458 | relative viability ([5]; first compound 0.01 µM): 0.868 | relative viability ([5]; first compound 0.03162 µM): 0.795 | relative viability ([5]; first compound 0.1 µM): 0.977 | relative viability ([5]; first compound 0.3162 µM): 0.557 | relative viability ([5]; first compound 1 µM): 0.776 | relative viability ([6]; first compound 0.01 µM): 1.11 | relative viability ([6]; first compound 0.03162 µM): 1.02 | relative viability ([6]; first compound 0.1 µM): 1.03 | relative viability ([6]; first compound 0.3162 µM): 0.979 | relative viability ([6]; first compound 1 µM): 0.954 | relative viability ([7]; first compound 0.01 µM): 0.201 | relative viability ([7]; first compound 0.03162 µM): 0.217 | relative viability ([7]; first compound 0.1 µM): 0.233 | relative viability ([7]; first compound 0.3162 µM): 0.203 | relative viability ([7]; first compound 1 µM): 0.197 | relative viability ([8]; first compound 0.01 µM): 0.343 | relative viability ([8]; first compound 0.1 µM): 0.364 | relative viability ([8]; first compound 0.3162 µM): 0.215 | relative viability ([8]; first compound 1 µM): 0.236 | relative viability ([9]; first compound 0.01 µM): 0.941 | relative viability ([9]; first compound 0.03162 µM): 0.901 | relative viability ([9]; first compound 0.1 µM): 1.11 | relative viability ([9]; first compound 0.3162 µM): 1.11 | relative viability ([9]; first compound 1 µM): 0.874 | relative viability ([10]; first compound 0.01 µM): 0.958 | relative viability ([10]; first compound 0.03162 µM): 1.06 | relative viability ([10]; first compound 0.1 µM): 1.1 | relative viability ([10]; first compound 0.3162 µM): 1.07 | relative viability ([10]; first compound 1 µM): 0.966 | relative viability ([11]; first compound 0.01 µM): 0.702 | relative viability ([11]; first compound 0.03162 µM): 0.722 | relative viability ([11]; first compound 0.1 µM): 0.73 | relative viability ([11]; first compound 0.3162 µM): 0.945 | relative viability ([11]; first compound 1 µM): 0.544

O=c1cc(N2CCOCC2)oc2c(-c3cccc4c3sc3ccccc34)cccc12 + CC(C)C[C@H](NC(=O)[C@H](Cc1ccccc1)NC(=O)c1cnccn1)B(O)O [Bortezomib] (partner 0.002 µM)
relative viability ([1]; first compound 0.01 µM): 0.991 | relative viability ([1]; first compound 0.03162 µM): 1.04 | relative viability ([1]; first compound 0.1 µM): 1.03 | relative viability ([1]; first compound 0.3162 µM): 0.871 | relative viability ([1]; first compound 1 µM): 1.03 | relative viability ([2]; first compound 0.01 µM): 0.857 | relative viability ([2]; first compound 0.1 µM): 0.985 | relative viability ([2]; first compound 0.3162 µM): 1.01 | relative viability ([2]; first compound 1 µM): 0.925 | relative viability ([3]; first compound 0.01 µM): 1.04 | relative viability ([3]; first compound 0.03162 µM): 1.05 | relative viability ([3]; first compound 0.1 µM): 1.01 | relative viability ([3]; first compound 0.3162 µM): 0.969 | relative viability ([3]; first compound 1 µM): 1.03 | relative viability ([4]; first compound 0.01 µM): 0.569 | relative viability ([4]; first compound 0.03162 µM): 0.538 | relative viability ([4]; first compound 0.1 µM): 0.505 | relative viability ([4]; first compound 0.3162 µM): 0.555 | relative viability ([4]; first compound 1 µM): 0.49 | relative viability ([5]; first compound 0.01 µM): 0.837 | relative viability ([5]; first compound 0.03162 µM): 0.904 | relative viability ([5]; first compound 0.1 µM): 0.784 | relative viability ([5]; first compound 0.3162 µM): 0.896 | relative viability ([5]; first compound 1 µM): 0.74 | relative viability ([6]; first compound 0.01 µM): 1.04 | relative viability ([6]; first compound 0.03162 µM): 1.01 | relative viability ([6]; first compound 0.1 µM): 0.984 | relative viability ([6]; first compound 0.3162 µM): 1.03 | relative viability ([6]; first compound 1 µM): 1.08 | relative viability ([7]; first compound 0.03162 µM): 0.243 | relative viability ([7]; first compound 0.1 µM): 0.193 | relative viability ([7]; first compound 0.3162 µM): 0.219 | relative viability ([7]; first compound 1 µM): 0.175 | relative viability ([8]; first compound 0.01 µM): 0.333 | relative viability ([8]; first compound 0.03162 µM): 0.274 | relative viability ([8]; first compound 0.1 µM): 0.356 | relative viability ([8]; first compound 0.3162 µM): 0.403 | relative viability ([8]; first compound 1 µM): 0.296 | relative viability ([9]; first compound 0.01 µM): 0.92 | relative viability ([9]; first compound 0.03162 µM): 0.808 | relative viability ([9]; first compound 0.1 µM): 1.01 | relative viability ([9]; first compound 0.3162 µM): 0.938 | relative viability ([9]; first compound 1 µM): 0.899 | relative viability ([10]; first compound 0.01 µM): 1.03 | relative viability ([10]; first compound 0.03162 µM): 1.01 | relative viability ([10]; first compound 0.1 µM): 0.89 | relative viability ([10]; first compound 0.3162 µM): 0.967 | relative viability ([10]; first compound 1 µM): 1.01 | relative viability ([11]; first compound 0.01 µM): 0.63 | relative viability ([11]; first compound 0.03162 µM): 0.505 | relative viability ([11]; first compound 0.1 µM): 0.72 | relative viability ([11]; first compound 0.3162 µM): 0.736 | relative viability ([11]; first compound 1 µM): 0.728
